# Laboratory results as given in PubChem BioAssay AID1259407 (Chemical Carcinogenesis Research Information System (CCRIS), 2018).
# Activity calls are given as the source filed them. How the calls were made is not given here.
# Tested on: CCRIS mutagenicity, Ames/micronucleus/aberration tests
# Assay: CCRIS mutagenicity studies
# [1] = Test System: AMES SALMONELLA TYPHIMURIUM, Strain/Indicator: TA98, Metabolic Activation: NONE, Method: STANDARD PLATE
# [2] = Test System: AMES SALMONELLA TYPHIMURIUM, Strain/Indicator: TA98, Metabolic Activation: RAT, LIVER, S-9, AROCLOR 1254, Method: STANDARD PLATE
# [3] = Test System: AMES SALMONELLA TYPHIMURIUM, Strain/Indicator: TA100, Metabolic Activation: NONE, Method: STANDARD PLATE
# [4] = Test System: AMES SALMONELLA TYPHIMURIUM, Strain/Indicator: TA100, Metabolic Activation: RAT, LIVER, S-9, AROCLOR 1254, Method: STANDARD PLATE
# [5] = Test System: AMES SALMONELLA TYPHIMURIUM, Strain/Indicator: TA1535, Metabolic Activation: NONE, Method: STANDARD PLATE
# [6] = Test System: AMES SALMONELLA TYPHIMURIUM, Strain/Indicator: TA1535, Metabolic Activation: RAT, LIVER, S-9, AROCLOR 1254, Method: STANDARD PLATE
# [7] = Test System: AMES SALMONELLA TYPHIMURIUM, Strain/Indicator: TA1537, Metabolic Activation: NONE, Method: STANDARD PLATE
# [8] = Test System: AMES SALMONELLA TYPHIMURIUM, Strain/Indicator: TA1537, Metabolic Activation: RAT, LIVER, S-9, AROCLOR 1254, Method: STANDARD PLATE
# [9] = Test System: AMES SALMONELLA TYPHIMURIUM, Strain/Indicator: TA1538, Metabolic Activation: NONE, Method: STANDARD PLATE
# [10] = Test System: AMES SALMONELLA TYPHIMURIUM, Strain/Indicator: TA1538, Metabolic Activation: RAT, LIVER, S-9, AROCLOR 1254, Method: STANDARD PLATE
compound,measurement,setting,value
C=CC(=O)OC(C)(C)C,mutagenic call,[1],inactive; negative
same,mutagenic call,[2],inactive; negative
same,mutagenic call,"Test System: AMES SALMONELLA TYPHIMURIUM, Strain/Indicator: TA98, Metabolic Activation: RAT, LIVER, S-9, SODIUM PHENOBARBITAL, Method: STANDARD PLATE",inactive; negative
same,mutagenic call,[3],inactive; negative
same,mutagenic call,[4],inactive; negative
same,mutagenic call,"Test System: AMES SALMONELLA TYPHIMURIUM, Strain/Indicator: TA100, Metabolic Activation: RAT, LIVER, S-9, SODIUM PHENOBARBITAL, Method: STANDARD PLATE",inactive; negative
same,mutagenic call,[5],inactive; negative
same,mutagenic call,[6],inactive; negative
same,mutagenic call,"Test System: AMES SALMONELLA TYPHIMURIUM, Strain/Indicator: TA1535, Metabolic Activation: RAT, LIVER, S-9, SODIUM PHENOBARBITAL, Method: STANDARD PLATE",inactive; negative
same,mutagenic call,[7],inactive; negative
same,mutagenic call,[8],inactive; negative
same,mutagenic call,"Test System: AMES SALMONELLA TYPHIMURIUM, Strain/Indicator: TA1537, Metabolic Activation: RAT, LIVER, S-9, SODIUM PHENOBARBITAL, Method: STANDARD PLATE",inactive; negative
same,mutagenic call,[9],inactive; negative
same,mutagenic call,[10],inactive; negative
same,mutagenic call,"Test System: AMES SALMONELLA TYPHIMURIUM, Strain/Indicator: TA1538, Metabolic Activation: RAT, LIVER, S-9, SODIUM PHENOBARBITAL, Method: STANDARD PLATE",inactive; negative
Cc1ccc(OS(=O)(=O)c2cccc3cccnc23)c([N+](=O)[O-])c1,mutagenic call,[1],active; positive
same,mutagenic call,[2],active; positive
same,mutagenic call,[3],active; positive
same,mutagenic call,[4],active; positive
same,mutagenic call,[5],inactive; negative
same,mutagenic call,[6],inactive; negative
same,mutagenic call,[7],active; positive
same,mutagenic call,[8],active; positive
N#Cc1ccccc1,mutagenic call,"End Point: IN VITRO MICRONUCLEUS, Test System: CHINESE HAMSTER V79, Metabolic Activation: NONE",active; positive
same,mutagenic call,"Test System: AMES SALMONELLA TYPHIMURIUM, Strain/Indicator: TA97, Metabolic Activation: HAMSTER, LIVER, S-9, AROCLOR 1254 (10 OR 30%), Method: PREINCUBATION",inactive; negative
same,mutagenic call,"Test System: AMES SALMONELLA TYPHIMURIUM, Strain/Indicator: TA97, Metabolic Activation: NONE, Method: PREINCUBATION",inactive; negative
same,mutagenic call,"Test System: AMES SALMONELLA TYPHIMURIUM, Strain/Indicator: TA97, Metabolic Activation: RAT, LIVER, S-9, AROCLOR 1254 (10 OR 30%), Method: PREINCUBATION",inactive; negative
same,mutagenic call,"Test System: AMES SALMONELLA TYPHIMURIUM, Strain/Indicator: TA98, Metabolic Activation: HAMSTER, LIVER, S-9, AROCLOR 1254 (10 OR 30%), Method: PREINCUBATION",inactive; negative
same,mutagenic call,"Test System: AMES SALMONELLA TYPHIMURIUM, Strain/Indicator: TA98, Metabolic Activation: HAMSTER, LIVER, S-9, AROCLOR 1254, Method: STANDARD PLATE",inactive; negative
same,mutagenic call,"Test System: AMES SALMONELLA TYPHIMURIUM, Strain/Indicator: TA98, Metabolic Activation: NONE, Method: PREINCUBATION",inactive; negative
same,mutagenic call,[1],inactive; negative
same,mutagenic call,"Test System: AMES SALMONELLA TYPHIMURIUM, Strain/Indicator: TA98, Metabolic Activation: RAT LIVER S-9, PHENOBARBITAL AND BETA-NAPHTHOFLAVONE, Method: PREINCUBATION",inactive; negative
same,mutagenic call,"Test System: AMES SALMONELLA TYPHIMURIUM, Strain/Indicator: TA98, Metabolic Activation: RAT, LIVER, S-9, AROCLOR 1254 (10 OR 30%), Method: PREINCUBATION",inactive; negative
same,mutagenic call,[2],inactive; negative
same,mutagenic call,"Test System: AMES SALMONELLA TYPHIMURIUM, Strain/Indicator: TA100, Metabolic Activation: HAMSTER, LIVER, S-9, AROCLOR 1254 (10 OR 30%), Method: PREINCUBATION",inactive; negative
same,mutagenic call,"Test System: AMES SALMONELLA TYPHIMURIUM, Strain/Indicator: TA100, Metabolic Activation: HAMSTER, LIVER, S-9, AROCLOR 1254, Method: STANDARD PLATE",inactive; negative
same,mutagenic call,"Test System: AMES SALMONELLA TYPHIMURIUM, Strain/Indicator: TA100, Metabolic Activation: NONE, Method: PREINCUBATION",inactive; negative
same,mutagenic call,[3],inactive; negative
same,mutagenic call,"Test System: AMES SALMONELLA TYPHIMURIUM, Strain/Indicator: TA100, Metabolic Activation: RAT LIVER S-9, PHENOBARBITAL AND BETA-NAPHTHOFLAVONE, Method: PREINCUBATION",inactive; negative
same,mutagenic call,"Test System: AMES SALMONELLA TYPHIMURIUM, Strain/Indicator: TA100, Metabolic Activation: RAT, LIVER, S-9, AROCLOR 1254 (10 OR 30%), Method: PREINCUBATION",inactive; negative
same,mutagenic call,[4],inactive; negative
same,mutagenic call,"Test System: AMES SALMONELLA TYPHIMURIUM, Strain/Indicator: TA1535, Metabolic Activation: HAMSTER, LIVER, S-9, AROCLOR 1254 (10 OR 30%), Method: PREINCUBATION",inactive; negative
same,mutagenic call,"Test System: AMES SALMONELLA TYPHIMURIUM, Strain/Indicator: TA1535, Metabolic Activation: HAMSTER, LIVER, S-9, AROCLOR 1254, Method: STANDARD PLATE",inactive; negative
same,mutagenic call,"Test System: AMES SALMONELLA TYPHIMURIUM, Strain/Indicator: TA1535, Metabolic Activation: NONE, Method: PREINCUBATION",inactive; negative
same,mutagenic call,[5],inactive; negative
same,mutagenic call,"Test System: AMES SALMONELLA TYPHIMURIUM, Strain/Indicator: TA1535, Metabolic Activation: RAT LIVER S-9, PHENOBARBITAL AND BETA-NAPHTHOFLAVONE, Method: PREINCUBATION",inactive; negative
same,mutagenic call,"Test System: AMES SALMONELLA TYPHIMURIUM, Strain/Indicator: TA1535, Metabolic Activation: RAT, LIVER, S-9, AROCLOR 1254 (10 OR 30%), Method: PREINCUBATION",inactive; negative
same,mutagenic call,[6],inactive; negative
same,mutagenic call,"Test System: AMES SALMONELLA TYPHIMURIUM, Strain/Indicator: TA1537, Metabolic Activation: HAMSTER, LIVER, S-9, AROCLOR 1254, Method: STANDARD PLATE",inactive; negative
same,mutagenic call,"Test System: AMES SALMONELLA TYPHIMURIUM, Strain/Indicator: TA1537, Metabolic Activation: NONE, Method: PREINCUBATION",inactive; negative
same,mutagenic call,[7],inactive; negative
same,mutagenic call,"Test System: AMES SALMONELLA TYPHIMURIUM, Strain/Indicator: TA1537, Metabolic Activation: RAT LIVER S-9, PHENOBARBITAL AND BETA-NAPHTHOFLAVONE, Method: PREINCUBATION",inactive; negative
same,mutagenic call,[8],inactive; negative
same,mutagenic call,"Test System: AMES SALMONELLA TYPHIMURIUM, Strain/Indicator: TA1538, Metabolic Activation: HAMSTER, LIVER, S-9, AROCLOR 1254, Method: STANDARD PLATE",inactive; negative
same,mutagenic call,[9],inactive; negative
same,mutagenic call,[10],inactive; negative
same,mutagenic call,"Test System: E. COLI, Strain/Indicator: WP2UVRA, Metabolic Activation: NONE, Method: PREINCUBATION",inactive; negative
same,mutagenic call,"Test System: E. COLI, Strain/Indicator: WP2UVRA, Metabolic Activation: RAT LIVER S-9, PHENOBARBITAL AND BETA-NAPHTHOFLAVONE, Method: PREINCUBATION",inactive; negative
same,mutagenic call,"Test System: MOUSE LYMPHOMA, Strain/Indicator: L5178Y (TK+/TK-), Metabolic Activation: NONE, Method: SUSPENSION/PLATE",inactive; negative. reevaluation of results: negative
same,mutagenic call,"Test System: MOUSE LYMPHOMA, Strain/Indicator: L5178Y (TK+/TK-), Metabolic Activation: RAT, LIVER, S-9, AROCLOR 1254, Method: SUSPENSION/PLATE",inactive; negative. reevaluation of results: negative
O=C1OCC(CCl)=C1Cl,mutagenic call,[3],active; positive
O=C(O[C@@H]1Cc2c(O)cc(O)cc2O[C@@H]1c1cc(O)c(O)c(O)c1)c1cc(O)c(O)c(O)c1,mutagenic call,"Test System: Ames Salmonella typhimurium, Strain/Indicator: TA102, Metabolic Activation: None, Method: Preincubation",inactive; negative
same,mutagenic call,"Test System: Ames Salmonella typhimurium, Strain/Indicator: TA102, Metabolic Activation: Rat, Liver, S-9, Aroclor 1254 in 0.154 M KCl, Method: Preincubation",inactive; negative
